Tested on: rhesus monkeys
Test: Fasted plasma glucagon, glucose and amino acids in rhesus monkeys dosed 14 days
Type: in vivo, rhesus monkey
Protocol: In a follow-up experiment, adult rhesus monkeys were dosed once daily for 14 days with 30 mg/kg GRA1 or vehicle (0.5% methylcellulose plus 0.02% sodium dodecyl sulfate in 2 mL/kg water) delivered by oral gavage. Blood samples were collected on days 0, 1, 7, and 14 after the animals had fasted overnight. Plasma concentrations of glucose, glucagon, and amino acids were assayed by the Hormone Assay & Analytical Services Core at Vanderbilt University (Nashville, TN).

[1] = rhesus, 30 mg/kg once daily, Day 0
[2] = rhesus, 30 mg/kg once daily, Day 1
[3] = rhesus, 30 mg/kg once daily, Day 7
[4] = rhesus, 30 mg/kg once daily, Day 14

Question: Which Hypoglycemia (normoglycemic rhesus, 30 mg/kg once daily, 14 days) does the source give for `COc1ccc2cc(-c3cc(-c4cc(C(F)(F)F)ccc4F)nn3[C@@H](C)c3ccc(C(=O)NCCC(=O)O)cc3)ccc2c1` [GRA1, N-[4-((1S)-1-{3-(2-fluoro-5-trifluoromethylphenyl)-5-[6-methoxynaphth-2-yl]-1H-pyrazol-1-yl}ethyl)benzoyl]-β-alanine] here?
Answer: not rendered hypoglycemic

Question: And the Plasma insulin (rhesus, 30 mg/kg once daily (data not shown))?
Answer: unaffected

Question: And the “Alanine, fasted plasma” value [1]?
Answer: 200 ± 21 µM

Question: What about the “Arginine, fasted plasma” value [1] of the same molecule?
Answer: 124 ± 15 µM

Question: And the “Asparagine, fasted plasma” value [1]?
Answer: 61.2 ± 17.8 µM

Question: What about the “Aspartic acid, fasted plasma” value [1] of the same molecule?
Answer: 5.3 ± 1.3 µM

Question: And the “Glucagon, fasted plasma” value [1]?
Answer: 381 ± 74 pg/mL

Question: And the “Glucose, fasted plasma” value [1]?
Answer: 85.3 ± 9.4 mg/dL

Question: What about the “Glutamic acid, fasted plasma” value [1] of the same molecule?
Answer: 48.1 ± 3.6 µM

Question: What about the “Glutamine, fasted plasma” value [1] of the same molecule?
Answer: 597 ± 66 µM

Question: What about the “Glycine, fasted plasma” value [1] of the same molecule?
Answer: 300 ± 32 µM

Question: What about the “Histidine, fasted plasma” value [1] of the same molecule?
Answer: 121 ± 11 µM

Question: And the “Hydroxyproline, fasted plasma” value [1]?
Answer: 12.9 ± 2.3 µM

Question: And the “Isoleucine, fasted plasma” value [1]?
Answer: 98.2 ± 8.3 µM

Question: And the “Leucine, fasted plasma” value [1]?
Answer: 147 ± 9 µM

Question: And the “Lysine, fasted plasma” value [1]?
Answer: 191 ± 25 µM

Question: What about the “Methionine, fasted plasma” value [1] of the same molecule?
Answer: 22.9 ± 2.7 µM

Question: And the “Phenylalanine, fasted plasma” value [1]?
Answer: 47.8 ± 2.4 µM

Question: What about the “Proline, fasted plasma” value [1] of the same molecule?
Answer: 118 ± 13 µM

Question: What about the “Serine, fasted plasma” value [1] of the same molecule?
Answer: 123 ± 8 µM

Question: What about the “Threonine, fasted plasma” value [1] of the same molecule?
Answer: 95.2 ± 5.9 µM

Question: What about the “Tyrosine, fasted plasma” value [1] of the same molecule?
Answer: 77.2 ± 6.8 µM

Question: And the “Valine, fasted plasma” value [1]?
Answer: 256 ± 21 µM

Question: What about the “Alanine, fasted plasma” value [2] of the same molecule?
Answer: 500 ± 79 µM

Question: What about the “Arginine, fasted plasma” value [2] of the same molecule?
Answer: 237 ± 33 µM

Question: And the “Asparagine, fasted plasma” value [2]?
Answer: 42.5 ± 8.3 µM

Question: And the “Aspartic acid, fasted plasma” value [2]?
Answer: 5.6 ± 0.7 µM

Question: What about the “Glucagon, fasted plasma” value [2] of the same molecule?
Answer: 921 ± 16 pg/mL

Question: And the “Glucose, fasted plasma” value [2]?
Answer: 63.7 ± 2.7 mg/dL

Question: And the “Glutamic acid, fasted plasma” value [2]?
Answer: 71.9 ± 5.7 µM

Question: And the “Glutamine, fasted plasma” value [2]?
Answer: 986 ± 150 µM

Question: And the “Glycine, fasted plasma” value [2]?
Answer: 533 ± 70 µM

Question: And the “Histidine, fasted plasma” value [2]?
Answer: 153 ± 14 µM

Question: What about the “Hydroxyproline, fasted plasma” value [2] of the same molecule?
Answer: 15.4 ± 2.3 µM

Question: And the “Isoleucine, fasted plasma” value [2]?
Answer: 72.4 ± 7.9 µM

Question: And the “Leucine, fasted plasma” value [2]?
Answer: 164 ± 24 µM

Question: And the “Lysine, fasted plasma” value [2]?
Answer: 390 ± 56 µM

Question: And the “Methionine, fasted plasma” value [2]?
Answer: 50.2 ± 10.0 µM

Question: And the “Phenylalanine, fasted plasma” value [2]?
Answer: 52.6 ± 7.0 µM

Question: What about the “Proline, fasted plasma” value [2] of the same molecule?
Answer: 326 ± 54 µM

Question: What about the “Serine, fasted plasma” value [2] of the same molecule?
Answer: 228 ± 24 µM

Question: And the “Threonine, fasted plasma” value [2]?
Answer: 179.1 ± 25.1 µM

Question: And the “Tyrosine, fasted plasma” value [2]?
Answer: 161.4 ± 26.8 µM

Question: What about the “Valine, fasted plasma” value [2] of the same molecule?
Answer: 252 ± 33 µM

Question: And the “Alanine, fasted plasma” value [3]?
Answer: 456 ± 68 µM

Question: And the “Arginine, fasted plasma” value [3]?
Answer: 341 ± 76 µM

Question: And the “Asparagine, fasted plasma” value [3]?
Answer: 54.2 ± 10.8 µM

Question: And the “Aspartic acid, fasted plasma” value [3]?
Answer: 6.7 ± 1.2 µM

Question: And the “Glucagon, fasted plasma” value [3]?
Answer: 874 ± 101 pg/mL

Question: And the “Glucose, fasted plasma” value [3]?
Answer: 69.2 ± 4.9 mg/dL

Question: And the “Glutamic acid, fasted plasma” value [3]?
Answer: 98.9 ± 15.2 µM

Question: What about the “Glutamine, fasted plasma” value [3] of the same molecule?
Answer: 1186 ± 164 µM

Question: And the “Glycine, fasted plasma” value [3]?
Answer: 558 ± 74 µM

Question: And the “Histidine, fasted plasma” value [3]?
Answer: 170 ± 15 µM

Question: What about the “Hydroxyproline, fasted plasma” value [3] of the same molecule?
Answer: 23.3 ± 5.3 µM

Question: And the “Isoleucine, fasted plasma” value [3]?
Answer: 88.6 ± 8.2 µM

Question: And the “Leucine, fasted plasma” value [3]?
Answer: 215 ± 44 µM

Question: What about the “Lysine, fasted plasma” value [3] of the same molecule?
Answer: 340 ± 71 µM

Question: What about the “Methionine, fasted plasma” value [3] of the same molecule?
Answer: 36.1 ± 5.6 µM

Question: And the “Phenylalanine, fasted plasma” value [3]?
Answer: 49.7 ± 3.3 µM

Question: And the “Proline, fasted plasma” value [3]?
Answer: 490 ± 95 µM

Question: What about the “Serine, fasted plasma” value [3] of the same molecule?
Answer: 256 ± 41 µM

Question: What about the “Threonine, fasted plasma” value [3] of the same molecule?
Answer: 160.9 ± 21.3 µM

Question: And the “Tyrosine, fasted plasma” value [3]?
Answer: 110.6 ± 7.9 µM

Question: And the “Valine, fasted plasma” value [3]?
Answer: 260 ± 17 µM

Question: What about the “Alanine, fasted plasma” value [4] of the same molecule?
Answer: 361 ± 51 µM

Question: And the “Arginine, fasted plasma” value [4]?
Answer: 282 ± 54 µM

Question: And the “Asparagine, fasted plasma” value [4]?
Answer: 33.8 ± 4.8 µM

Question: What about the “Aspartic acid, fasted plasma” value [4] of the same molecule?
Answer: 5.9 ± 0.8 µM

Question: And the “Glucagon, fasted plasma” value [4]?
Answer: 984 ± 186 pg/mL

Question: And the “Glucose, fasted plasma” value [4]?
Answer: 69.2 ± 3.8 mg/dL

Question: And the “Glutamic acid, fasted plasma” value [4]?
Answer: 91.9 ± 10.0 µM

Question: And the “Glutamine, fasted plasma” value [4]?
Answer: 1151 ± 191 µM

Question: And the “Glycine, fasted plasma” value [4]?
Answer: 531 ± 76 µM

Question: And the “Histidine, fasted plasma” value [4]?
Answer: 187 ± 21 µM

Question: What about the “Hydroxyproline, fasted plasma” value [4] of the same molecule?
Answer: 15.3 ± 2.3 µM

Question: And the “Isoleucine, fasted plasma” value [4]?
Answer: 89.6 ± 7.8 µM

Question: What about the “Leucine, fasted plasma” value [4] of the same molecule?
Answer: 218 ± 36 µM

Question: What about the “Lysine, fasted plasma” value [4] of the same molecule?
Answer: 375 ± 70 µM

Question: What about the “Methionine, fasted plasma” value [4] of the same molecule?
Answer: 34.7 ± 6.3 µM

Question: And the “Phenylalanine, fasted plasma” value [4]?
Answer: 51.5 ± 1.8 µM

Question: What about the “Proline, fasted plasma” value [4] of the same molecule?
Answer: 415 ± 84 µM

Question: And the “Serine, fasted plasma” value [4]?
Answer: 217 ± 28 µM

Question: What about the “Threonine, fasted plasma” value [4] of the same molecule?
Answer: 155.3 ± 23.3 µM

Question: And the “Tyrosine, fasted plasma” value [4]?
Answer: 105.8 ± 9.9 µM

Question: And the “Valine, fasted plasma” value [4]?
Answer: 276 ± 20 µM

Question: What about the “Increase of plasma glucagon relative to vehicle-treated controls” value (rhesus, 30 mg/kg once daily, both Day 1 and Day 7) of the same molecule?
Answer: approximately 3 fold
